Assays:
pepsin = pepsin (Homo sapiens, UniProt P0DJD8); experiment: Proteolysis of casein by pepsin with ascorbic acid in citric acid buffer (OPA fluorescence, TAAE); type: biochemical
Description: 1. […]
(§1) The four test tubes were respectively incubated at 37° C. for 10 minutes, 1 hour, 2 hours and 3 hours, an equal amount of 10% trichloroacetic acid (TCA) solution was added into each test tube and mixed with the control solution uniformly, and the test tubes were held at room temperature for 10 minutes and then centrifuged at 3000 rpm for 10 minutes. 20 μL of the supernatants taken from the above-mentioned test tubes at four time points were put into four new test tubes. 2.4 mL o-phthalaldehyde (OPA) reagent was added into each new test tube and held for 2 minutes, and the fluorescence intensity was measured at EX. 340 nm and EM. 455 nm by a fluorescence spectrometer. […] The four test tubes were respectively incubated at 37° C. for 10 minutes, 1 hour, 2 hours and 3 hours, an equal amount of 10% TCA solution was added into each test tube and mixed with the experimental solution uniformly, and the test tubes were held at room temperature for 10 minutes and then centrifuged at 3000 rpm for 10 minutes. 20 μL of the supernatants taken from the above-mentioned test tubes at four time points were put into four new test tubes. 2.4 mL OPA reagent was added into each new test tube and held for 2 minutes, and the fluorescence intensity was measured at EX. 340 nm and EM. 455 nm by the fluorescence spectrometer. […] The four test tubes were respectively incubated at 37° C. for 10 minutes, 1 hour, 2 hours and 3 hours, an equal amount of 10% TCA solution was added into each test tube and mixed with the experimental solution uniformly, and the test tubes were held at room temperature for 10 minutes and then centrifuged at 3000 rpm for 10 minutes. 20 μL of the supernatants taken from the above-mentioned test tubes at four time points were put into four new test tubes. 2.4 mL OPA reagent was added into each new test tube and held for 2 minutes, and the fluorescence intensity was measured at EX. 340 nm and EM. 455 nm by the fluorescence spectrometer. […] The four test tubes were respectively incubated at 37° C. for 10 minutes, 1 hour, 2 hours and 3 hours, an equal amount of 10% TCA solution was added into each test tube and mixed with the experimental solution uniformly, and the test tubes were held at room temperature for 10 minutes and then centrifuged at 3000 rpm for 10 minutes. 20 μL of the supernatants taken from the above-mentioned test tubes at four time points were put into four new test tubes. 2.4 mL OPA reagent was added into each new test tube and held for 2 minutes, and the fluorescence intensity was measured at EX. 340 nm and EM. 455 nm by the fluorescence spectrometer. The obtained fluorescence intensity was calculated as the amount of tyrosine according to the tyrosine calibration line established in advance at the same pH value, and represented as TAAE (μg/mL). 2. […] The four test tubes were respectively incubated at 37° C. for 10 minutes, 1 hour, 2 hours and 3 hours, an equal amount of 10% TCA solution was added into each test tube and mixed with the control solution uniformly, and the test tubes were held at room temperature for 10 minutes and then centrifuged at 3000 rpm for 10 minutes. 20 μL of the supernatants taken from the above-mentioned test tubes at four time points were put into four new test tubes. 2.4 mL OPA reagent was added into each new test tube and held for 2 minutes, and the fluorescence intensity was measured at EX. 340 nm and EM. 455 nm by the fluorescence spectrometer. […] The four test tubes were respectively incubated at 37° C. for 10 minutes, 1 hour, 2 hours and 3 hours, an equal amount of 10% TCA solution was added into each test tube and mixed with the experimental solution uniformly, and the test tubes were held at room temperature for 10 minutes and then centrifuged at 3000 rpm for 10 minutes. 20 μL of the supernatants taken from the above-mentioned test tubes at four time points were put into four new test tubes. […]

trypsin = trypsin (Homo sapiens, UniProt P07477); experiment: Proteolysis of casein by trypsin with ascorbic acid in citric acid buffer (OPA fluorescence, TAAE); type: biochemical
Description: as §1

[1] = environment where the pH is greater than 4; cited from earlier work
[2] = pH 5.0, 60 ppm ascorbic acid, 0.1 hr
[3] = pH 5.0, 60 ppm ascorbic acid, 1 hr
[4] = pH 5.0, 60 ppm ascorbic acid, 2 hr
[5] = pH 5.0, 60 ppm ascorbic acid, 3 hr
[6] = pH 5.0, 120 ppm ascorbic acid, 0.1 hr
[7] = pH 5.0, 120 ppm ascorbic acid, 1 hr
[8] = pH 5.0, 120 ppm ascorbic acid, 2 hr
[9] = pH 5.0, 120 ppm ascorbic acid, 3 hr
[10] = pH 5.0, 240 ppm ascorbic acid, 0.1 hr
[11] = pH 5.0, 240 ppm ascorbic acid, 1 hr
[12] = pH 5.0, 240 ppm ascorbic acid, 2 hr
[13] = pH 5.0, 240 ppm ascorbic acid, 3 hr
[14] = pH 6.0, 60 ppm ascorbic acid, 0.1 hr
[15] = pH 6.0, 60 ppm ascorbic acid, 1 hr
[16] = pH 6.0, 60 ppm ascorbic acid, 2 hr
[17] = pH 6.0, 60 ppm ascorbic acid, 3 hr
[18] = pH 6.0, 120 ppm ascorbic acid, 0.1 hr
[19] = pH 6.0, 120 ppm ascorbic acid, 1 hr
[20] = pH 6.0, 120 ppm ascorbic acid, 2 hr
[21] = pH 6.0, 120 ppm ascorbic acid, 3 hr
[22] = pH 6.0, 240 ppm ascorbic acid, 0.1 hr
[23] = pH 6.0, 240 ppm ascorbic acid, 1 hr
[24] = pH 6.0, 240 ppm ascorbic acid, 2 hr
[25] = pH 6.0, 240 ppm ascorbic acid, 3 hr
[26] = pH 6.0, groups containing ascorbic acid

Sequence of pepsin (P0DJD8 63-388): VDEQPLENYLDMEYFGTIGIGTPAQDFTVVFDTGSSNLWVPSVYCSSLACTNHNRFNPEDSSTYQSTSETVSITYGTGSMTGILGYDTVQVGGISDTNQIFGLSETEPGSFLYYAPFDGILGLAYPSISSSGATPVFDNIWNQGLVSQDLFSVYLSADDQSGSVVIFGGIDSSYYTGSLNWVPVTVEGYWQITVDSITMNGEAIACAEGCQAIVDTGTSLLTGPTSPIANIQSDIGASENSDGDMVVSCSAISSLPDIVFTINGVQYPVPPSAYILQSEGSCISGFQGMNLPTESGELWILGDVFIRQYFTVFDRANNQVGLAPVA

O=C1O[C@H]([C@@H](O)CO)C(O)=C1O [ascorbic acid]
total amino acid equivalent (TAAE) (pepsin; pH 2.0, 60 ppm ascorbic acid, 0.1 hr): 3.8 µg/mL | total amino acid equivalent (TAAE) (pepsin; pH 2.0, 60 ppm ascorbic acid, 1 hr): 44.9 µg/mL | total amino acid equivalent (TAAE) (pepsin; pH 2.0, 60 ppm ascorbic acid, 2 hr): 70.9 µg/mL | total amino acid equivalent (TAAE) (pepsin; pH 2.0, 60 ppm ascorbic acid, 3 hr): 44.9 µg/mL | total amino acid equivalent (TAAE) (pepsin; pH 2.0, 120 ppm ascorbic acid, 0.1 hr): 6.7 µg/mL | total amino acid equivalent (TAAE) (pepsin; pH 2.0, 120 ppm ascorbic acid, 1 hr): 45.1 µg/mL | total amino acid equivalent (TAAE) (pepsin; pH 2.0, 120 ppm ascorbic acid, 2 hr): 73.0 µg/mL | total amino acid equivalent (TAAE) (pepsin; pH 2.0, 120 ppm ascorbic acid, 3 hr): 58.7 µg/mL | total amino acid equivalent (TAAE) (pepsin; pH 2.0, 240 ppm ascorbic acid, 0.1 hr): 5.6 µg/mL | total amino acid equivalent (TAAE) (pepsin; pH 2.0, 240 ppm ascorbic acid, 1 hr): 54.6 µg/mL | total amino acid equivalent (TAAE) (pepsin; pH 2.0, 240 ppm ascorbic acid, 2 hr): 76.4 µg/mL | total amino acid equivalent (TAAE) (pepsin; pH 2.0, 240 ppm ascorbic acid, 3 hr): 38.2 µg/mL | hydrolysis efficiency of pepsin versus control group (in words) (pepsin; pH 2.0, groups containing ascorbic acid): better hydrolysis efficiencies than the control group | TAAE (pepsin; [2]): 6.4 µg/mL | TAAE (pepsin; [3]): 32.7 µg/mL | TAAE (pepsin; [4]): 58.6 µg/mL | TAAE (pepsin; [5]): 42.0 µg/mL | TAAE (pepsin; [6]): 19.5 µg/mL | TAAE (pepsin; [7]): 22.1 µg/mL | TAAE (pepsin; [8]): 55.4 µg/mL | TAAE (pepsin; [9]): 38.1 µg/mL | proteolytic efficiency of pepsin (in words) (pepsin; pH 5.0, 240 ppm ascorbic acid): improves the proteolytic efficiency of the pepsin significantly | TAAE (pepsin; [10]): 49.5 µg/mL | TAAE (pepsin; [11]): 81.1 µg/mL | TAAE (pepsin; [12]): 92.2 µg/mL | TAAE (pepsin; [13]): 72.6 µg/mL | effect on proteolysis efficiency of pepsin (in words) (pepsin; pH 5, pH 6 and pH 2, control group at pH 2 as comparison indicator): significant effect on the proteolysis efficiency of the pepsin | TAAE (pepsin; [14]): 4.2 µg/mL | TAAE (pepsin; [15]): 47.9 µg/mL | TAAE (pepsin; [16]): 40.4 µg/mL | TAAE (pepsin; [17]): 27.5 µg/mL | TAAE (pepsin; [18]): -6.7 µg/mL | TAAE (pepsin; [19]): 43.9 µg/mL | TAAE (pepsin; [20]): 24.4 µg/mL | TAAE (pepsin; [21]): 24.2 µg/mL | TAAE (pepsin; [22]): 1.8 µg/mL | TAAE (pepsin; [23]): 31.5 µg/mL | TAAE (pepsin; [24]): 57.4 µg/mL | TAAE (pepsin; [25]): 34.5 µg/mL | proteolytic efficiency of pepsin versus control group (in words) (pepsin; [26]): better proteolytic efficiencies than the control group | TAAE (trypsin; [2]): 11.5 µg/mL | TAAE (trypsin; [3]): 30.4 µg/mL | TAAE (trypsin; [4]): 37.8 µg/mL | TAAE (trypsin; [5]): 45.2 µg/mL | TAAE (trypsin; [6]): 15.3 µg/mL | TAAE (trypsin; [7]): 38.0 µg/mL | TAAE (trypsin; [8]): 39.0 µg/mL | TAAE (trypsin; [9]): 49.1 µg/mL | proteolytic efficiency of trypsin (in words) (trypsin; pH 5.0, 240 ppm ascorbic acid): improves the proteolytic efficiency of the trypsin significantly | TAAE (trypsin; [10]): 38.9 µg/mL | TAAE (trypsin; [11]): 37.5 µg/mL | TAAE (trypsin; [12]): 87.9 µg/mL | TAAE (trypsin; [13]): 89.3 µg/mL | effect on proteolysis efficiency of trypsin (in words) (trypsin; pH 5, pH 6 and pH 7.5, control group at pH 7.5 as comparison indicator): significant effect on the proteolysis efficiency of the trypsin | TAAE (trypsin; [14]): 57.7 µg/mL | TAAE (trypsin; [15]): 86.6 µg/mL | TAAE (trypsin; [16]): 90.4 µg/mL | TAAE (trypsin; [17]): 93.7 µg/mL | TAAE (trypsin; [18]): 54.2 µg/mL | TAAE (trypsin; [19]): 85.6 µg/mL | TAAE (trypsin; [20]): 91.3 µg/mL | TAAE (trypsin; [21]): 94.8 µg/mL | TAAE (trypsin; [22]): 57.9 µg/mL | TAAE (trypsin; [23]): 102.4 µg/mL | TAAE (trypsin; [24]): 103.1 µg/mL | TAAE (trypsin; [25]): 91.5 µg/mL | proteolytic efficiency of trypsin versus control group (in words) (trypsin; [26]): better proteolytic efficiencies than the control group | TAAE (trypsin; pH 7.5, 60 ppm ascorbic acid, 0.1 hr): 82.6 µg/mL | TAAE (trypsin; pH 7.5, 60 ppm ascorbic acid, 1 hr): 107.0 µg/mL | TAAE (trypsin; pH 7.5, 60 ppm ascorbic acid, 2 hr): 103.8 µg/mL | TAAE (trypsin; pH 7.5, 60 ppm ascorbic acid, 3 hr): 105.1 µg/mL | TAAE (trypsin; pH 7.5, 120 ppm ascorbic acid, 0.1 hr): 78.4 µg/mL | TAAE (trypsin; pH 7.5, 120 ppm ascorbic acid, 1 hr): 116.3 µg/mL | TAAE (trypsin; pH 7.5, 120 ppm ascorbic acid, 2 hr): 107.3 µg/mL | TAAE (trypsin; pH 7.5, 120 ppm ascorbic acid, 3 hr): 99.0 µg/mL | TAAE (trypsin; pH 7.5, 240 ppm ascorbic acid, 0.1 hr): 60.4 µg/mL | TAAE (trypsin; pH 7.5, 240 ppm ascorbic acid, 1 hr): 91.1 µg/mL | TAAE (trypsin; pH 7.5, 240 ppm ascorbic acid, 2 hr): 100.5 µg/mL | TAAE (trypsin; pH 7.5, 240 ppm ascorbic acid, 3 hr): 86.8 µg/mL | hydrolysis efficiency of trypsin versus control group (in words) (trypsin; pH 7.5, groups containing ascorbic acid): better hydrolysis efficiencies than the control group | stability (degradation) of ascorbic acid (in words) [1]: easily degraded
